Patent US5916906A, “Compositions comprising nicotinylalanine and an inhibitor of glycine conjugation or vitamin B6” (priority 1997, dated 1999)

What was measured:
[1] = Plasma nicotinamide levels in LP-BM5 infected mice (HPLC); assay type: in vivo, C57BL/6 mice; details: NAL 400 mg/kg; for Mean Plasma Nicotinamide Level: virus-positive, mean ± SD
Procedure: Mice were sacrificed on Tuesdays at monthly intervals after
inoculation, approximately 24 hours after their last treatment.
At time of sacrifice, blood was collected by cardiac puncture and stored
Results are expressed as mean concentrations ± standard deviation in

LP-BM5 MuLV Retrovirus = assay: MAIDS model: disease stage score, attainment of disease score 4 (Kaplan-Meier) and survival up to 28 weeks; assay type: in vivo, C57BL/6 mice
Description: Each value represents the mean and one standard standard deviation for groups of surviving mice (at least 4 mice per group) at termination of the study, following 28 weeks post-inoculation by LP-BM5 virus.
(§1) Each group consisted of 8 mice, except for the virus-negative control group which consisted of 6 mice.
as §1
This study was designed to determine whether nicotinylalanine (NAL) alone or in combination with acetylsalicylic acid (ASA) will prevent or alter the course of murine retroviral-induced immunodeficiency disease, MAIDS, in C57BL/6 female mice. The LP-BM5 MuLV virus used for these studies was prepared from chronically infected SC-1 cells (ATCC Cat. No. CRL-1404), as described by Yetter R. A. et al., J. Exp. Med., 168, 623-635, 1988. […] The MAIDS model is well characterized and reproducible in the laboratory, as described by Mosier D. E. et al., J. Exp. Med. 161, 766-784, 1985.
Measures of disease progression followed the methods developed by Eiseman et al., 1991 (Ibid). Disease scores 0 through +4 are based upon body weight gain and palpable alterations in the size of lymph nodes and spleen. Severity of disease is scored as follows: 0.5, increased body weight and variably detected increase in size of any one lymph node or spleen; +1, clearly detectable increase in the size of a lymph node and spleen; +2, readily detectable (greater than 0.3 cm in diameter) increased size in more than one lymph node and, in particular, enlargement of subcervical, brachial or axillary nodes; +3, increased size of all palpable nodes and palpable splenomegaly (≥0.3 grams); +4, advanced disease with extensive splenomegaly (>1.0 grams) and lymphadenopathy.
Specific pathogen free, female C57BL/6 mice (5 weeks of age) were purchased from Charles River Breeding Laboratories. All mice were allowed one week to acclimate to housing facilities prior to randomization for study. Animals were marked for identification and placed in microisolator cages with identifying cards (5 mice/cage), where autoclaved food and water were provided ad libitum.
NAL and ASA were formulated under sterile conditions according to preformulation methods outlined in Remington's Pharmaceutical Sciences Handbook, 18th Edition, 1990, ibid). NAL and ASA were dissolved in sterile phosphate-buffered normal saline solution (i.e., vehicle; Biofluids Inc., Lot 413054), adjusted to between pH 7.2 to 7.4 with […], sterilized by filtration through 0.2 μm bottle-type filters, and dispersed into sterile glass vials, sealed and capped (Wheaton Inc.).
Except for Group 6 (which began treatment 2 weeks after virus inoculation),test drug injections began 1 day after virus infection and continued every day except weekends (i.e., 5 times per week).

[2] = Toxicity observations and necropsy in LP-BM5 infected mice; assay type: in vivo, C57BL/6 mice
Procedure: Disease progression was monitored by measuring serum IgM levels by ELISA on all animals at monthly intervals during the course of disease. Three mice per group were randomly selected and sacrificed at monthly intervals (end of month one through four) of the study. Disease scores for each animal were recorded weekly based upon palpation of lymph nodes and spleen. Complete gross necropsies were performed on these euthanized animals and the ratio of recorded spleen to body weights was an additional indicator of diseases progression. […] Infection was quantified by ecotropic virus XC plaque assays of spleens removed from the interim sacrificed animals. The study was to be terminated when mice were either dead or disease scores were +4 in more than 50% of the vehicle-treated MAIDS controls (Group 1), which occurred at 19 weeks post-inoculation of the virus pool. However, as the remaining mice in Group 1 were slow to progress towards more severe disease (FIG. 5) or death (FIG. 6), the study was extended until a termination date of 28 weeks post-inoculation.

[3] = rats treated with nicotinylalanine (Decker); cited from earlier work
[4] = Urinary N-methylnicotinamide in rats treated with nicotinylalanine (literature); assay type: in vivo; details: following nicotinylalanine injection, inferred from urinary N-methylnicotinamide
Description: As discussed above, these benefits of nicotinylalanine treatment are applicable to other diseases besides neurodegeneration. R. H. Decker, et al. (ibid) reported a 4-5 fold increase in N-methylnicotinamide levels in the urine of rats treated with nicotinylalanine. Since N-methylnicotinamide is a major urinary excretion product of nicotinamide in the rat, increases in the endogenous levels of nicotinamide following nicotinylalanine injection are at least 5 fold.

[5] = acute 500 mg/kg racemic NAL (Connick 1992); cited from earlier work
[6] = Behavioral toxicity, chronic i.p. dosing in mice; assay type: in vivo, C57BL/6 mice; details: chronic i.p. racemic NAL 400 mg/kg, more than four months
Procedure: Results from studies in a mouse model of AIDS (i.e., the LP-BM5 strain of murine leukemia virus-induced murine acquired immunodeficiency syndrome, MAIDS) are consistent with efficacy of a parenteral dose in humans of nicotinylalanine (isomer) between about 100 and 200 mg/kg body weight per day in combination with aspirin at about 20 mg/kg per day. […] Connick J. H., et al., Gen. Pharmac., 23:235-239, 1992. […] Vague P., et al., Lancet, I:619-620, 1987. This is consistent with the lack of toxicity reported for NAm in other human studies. (Hoffer A., Schizophrenia, 1:78-87, 1969).

[7] = Month 1, ASA 20 mg/kg, AZT as in Table 4
[8] = Month 1, ~24 h after last treatment, ASA 20 mg/kg, AZT printed 1 mg/kg
[9] = Month 2, ASA 20 mg/kg, AZT as in Table 4
[10] = Month 2, ~24 h after last treatment, ASA 20 mg/kg, AZT printed 1 mg/kg
[11] = Month 3, ASA 20 mg/kg, AZT as in Table 4
[12] = Month 3, ~24 h after last treatment, ASA 20 mg/kg, AZT printed 1 mg/kg
[13] = Month 4, ~24 h after last treatment, ASA 20 mg/kg, AZT printed 1 mg/kg
[14] = within the first month of dosing
[15] = NAL 400 mg/kg delayed by two weeks, FIG. 5

Cc1cn([C@H]2C[C@H](N=[N+]=[N-])[C@@H](CO)O2)c(=O)[nH]c1=O [AZT, 3'azido-3'deoxythymidine, reference compound]
Ratio of plasma nicotinamide mean to placebo (PBS Control, Group 1) [1, 7]: 1.59
Mean Plasma Nicotinamide Level [1, 8]: 5.1 ± 0.6 nmol/mL
Ratio of plasma nicotinamide mean to placebo (PBS Control, Group 1) [1, 9]: 1.54
Mean Plasma Nicotinamide Level [1, 10]: 6.0 ± 0.4 nmol/mL
Ratio of plasma nicotinamide mean to placebo (PBS Control, Group 1) [1, 11]: 2.26
Mean Plasma Nicotinamide Level [1, 12]: 5.2 ± 3.0 nmol/mL
Mean Plasma Nicotinamide Level [1, 13]: 5.8 ± 0.4 nmol/mL
Disease score of mice that died prior to termination (LP-BM5 MuLV Retrovirus; Groups 4 and 7): 0.5
Survival vs LP-BM5 virus-positive control (log-rank p) (LP-BM5 MuLV Retrovirus; treatment from day 1, FIG. 6): 0.0308
Deaths prior to termination of the study ([2]; 28-week study): one mouse
Necropsy finding in mice that died ([2]; Groups 4 and 7): distended food filled small and large intestines
Side-effect: melaninization [2, 14]: melaninization of extremities, tail, and ears
Side-effect: red-blood cell [2, 14]: red-blood cell toxicities

NC(CC(=O)c1cccnc1)C(=O)O (racemic) [NAL, γ-(3-pyridyl)-γ-oxo-α-aminobutyrate]
Increase in N-methylnicotinamide levels in urine [3]: 4-5 fold
Ratio of plasma nicotinamide mean to placebo (PBS Control, Group 1) [1, 7]: 1.06
Ratio of plasma nicotinamide mean to placebo (PBS Control, Group 1) ([1]; Month 1, delayed 2 weeks): 1.16
Mean Plasma Nicotinamide Level [1, 8]: 3.4 ± 0.9 nmol/mL
Mean Plasma Nicotinamide Level ([1]; Month 1, delayed Rx 2 weeks): 3.7 ± 1.1 nmol/mL
Ratio of plasma nicotinamide mean to placebo (PBS Control, Group 1) [1, 9]: 1.13
Ratio of plasma nicotinamide mean to placebo (PBS Control, Group 1) ([1]; Month 2, delayed 2 weeks): 1.49
Mean Plasma Nicotinamide Level [1, 10]: 4.4 ± 0.5 nmol/mL
Mean Plasma Nicotinamide Level ([1]; Month 2, delayed Rx 2 weeks): 5.8 ± 0.5 nmol/mL
Ratio of plasma nicotinamide mean to placebo (PBS Control, Group 1) [1, 11]: 1.35
Ratio of plasma nicotinamide mean to placebo (PBS Control, Group 1) ([1]; Month 3, delayed 2 weeks): 1.65
Mean Plasma Nicotinamide Level [1, 12]: 3.1 ± 0.4 nmol/mL
Mean Plasma Nicotinamide Level ([1]; Month 3, delayed Rx 2 weeks): 3.8 ± 0.1 nmol/mL
Ratio of plasma nicotinamide mean to placebo (PBS Control, Group 1) ([1]; Month 4, ASA 20 mg/kg, AZT as in Table 4): 1.88
Ratio of plasma nicotinamide mean to placebo (PBS Control, Group 1) ([1]; Month 4, delayed 2 weeks): 1.84
Mean Plasma Nicotinamide Level [1, 13]: 4.7 ± 0.5 nmol/mL
Mean Plasma Nicotinamide Level ([1]; Month 4, delayed Rx 2 weeks): 4.6 ± 0.3 nmol/mL
Increase in endogenous nicotinamide levels [4]: at least 5 fold
Behavioral effects [5]: not to result in any behavioral effects
Behavioral toxicity [6]: not been associated with obvious behavioral toxicity
Survival vs LP-BM5 virus-positive control (log-rank p) (LP-BM5 MuLV Retrovirus; NAL 400 mg/kg after two week delay, FIG. 6): 0.2492
Retardation of disease progression (score +4), Log-Rank p (LP-BM5 MuLV Retrovirus; [15]): 0.0469
Retardation of disease progression (score +4), Wilcoxon p (LP-BM5 MuLV Retrovirus; [15]): 0.0258
Survival vs vehicle-injected control (Wilcoxon p) (LP-BM5 MuLV Retrovirus; NAL 400 mg/kg delayed by two weeks, FIG. 6): 0.1756
Survival vs LP-BM5 virus-positive control (log-rank p) (LP-BM5 MuLV Retrovirus; treatment from day 1, FIG. 6): 0.9621
